Where no end group is shown, it is not given here.
Tests used:
[1] = test system: Hck-SH3; conditions: ITC, ref [12]; cited from earlier work
[2] = test system: Hck-SH3; experiment: Yeast two-hybrid assay; type: cell-based, human; conditions: negative control for RT-loop selection
[3] = test system: Fyn(R96I)-SH3; experiment: Yeast two-hybrid assay; type: cell-based, human; conditions: negative control for RT-loop selection
[4] = biological target: Fyn(WT)-SH3 (Homo sapiens, UniProt P06241); experiment: Yeast two-hybrid assay; type: cell-based; conditions: negative control for RT-loop selection
Fyn(WT)-SH3, sequence (P06241 82-143 limits assumed): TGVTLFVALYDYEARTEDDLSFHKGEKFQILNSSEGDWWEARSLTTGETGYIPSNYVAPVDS

Substance	binding characteristics toward Hck-SH3 compared with ALIXV+PRR [1]	yeast two-hybrid interaction strength [2]	yeast two-hybrid interaction strength [3]	yeast two-hybrid interaction strength [4]
PTPPTPAPRTMPPTKPQPPARPPP [ALIXPI]	did not fully reproduce the binding characteristics of ALIXV+PRR toward Hck-SH3	–	–	–
SAM68: Src-associated in mitosis 68 kDa (SAM68) protein	–	interacted with comparable strength with every SH3 domain	interacted with comparable strength with every SH3 domain	interacted with comparable strength with every SH3 domain

Reference: article PMC3378324 (Febs Letters, 2012)
